Test system: HCV replicon, genotype-1a variant with glutamine 30 changed to glutamate in the NS5A protein
Experiment: microbe, parasite or virus in culture
Assay type: cell-based, HCV genotype 1a
Conditions: HCV replicon genotype 1a Q30E (Q→E) variant; test compound titrated with an NS5A-targeting compound (BMS-790052 fixed at 200 nM); ranking of synergist activity
How it was run: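 Synergy was assessed by combining several fixed amounts of an NS5A-targeting compound with a titration of the second compound of interest.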

SMILES | Fold-Synergistic 1a (Q30E) [fold]
CC(C)[C@H](NC(=O)C(C)(C)N1C[C@@H](C)O[C@@H](C)C1)c1nc(-c2ccc(-c3ccc(-c4c[nH]c([C@@H](NC(=O)C(C)(C)N5C[C@@H](C)O[C@@H](C)C5)C(C)C)n4)cc3)cc2)c[nH]1 [Compound W-161] | >100
CN(CC(F)(F)F)C(C)(C)C(=O)N[C@H](c1nc(-c2ccc(-c3ccc(-c4c[nH]c([C@@H](NC(=O)C(C)(C)N(C)CC(F)(F)F)C(C)(C)C)n4)cc3)cc2)c[nH]1)C(C)(C)C [Compound L-62] | >100
CC1([C@H](NC(=O)C(C)(C)C2(O)CCC(F)(F)CC2)c2nc(-c3ccc(-c4ccc(-c5c[nH]c([C@@H](NC(=O)C(C)(C)C6(O)CCC(F)(F)CC6)C6(C)CC6)n5)cc4)cc3)c[nH]2)CC1 [Compound P-144] | >100
O=C(Cc1ccccc1)N1CCC[C@H]1c1ncc(-c2ccc(-c3ccc(-c4cnc([C@@H]5CCCN5C(=O)Cc5ccccc5)[nH]4)cc3)cc2)[nH]1 [Compound S-107] | <10
CN(C(=O)OC(C)(C)C)C1(C(=O)N[C@H](c2nc(-c3ccc(-c4ccc(-c5c[nH]c([C@@H](NC(=O)C6(N(C)C(=O)OC(C)(C)C)CC6)C(C)(C)C)n5)cc4)cc3)c[nH]2)C(C)(C)C)CC1 [Compound L-13] | >100
C[C@@H]1CN(C(=O)C(C)(C)C(=O)N[C@H](c2nc(-c3ccc(-c4ccc(-c5c[nH]c([C@@H](NC(=O)C(C)(C)C(=O)N6C[C@@H](C)O[C@@H](C)C6)C(C)(C)C)n5)cc4)cc3)c[nH]2)C(C)(C)C)C[C@H](C)O1 [Compound W-154] | >100
CC(C)(C)OC(=O)NC1(C(=O)N[C@H](c2nc(-c3ccc(-c4ccc(-c5c[nH]c([C@@H](NC(=O)C6(NC(=O)OC(C)(C)C)CCOCC6)C(C)(C)C)n5)cc4)cc3)c[nH]2)C(C)(C)C)CCOCC1 [Compound W-132] | >100
CC(C)(C)C(=O)N[C@H](c1ncc(-c2ccc(-c3ccc(-c4cnc([C@@H](NC(=O)C(C)(C)C)C(C)(C)CF)[nH]4)cc3)cc2)[nH]1)C(C)(C)CF [Compound Y-68] | >100
Cc1cc(-c2ccc(-c3c[nH]c([C@@H](NC(=O)C(C)(C)C)C(C)(C)C)n3)cc2)ccc1-c1c[nH]c([C@@H](NC(=O)C(C)(C)C)C(C)(C)C)n1 [Compound N-86] | >100
CN(C)C(=O)OC1(C(=O)N[C@H](c2nc(-c3ccc(-c4ccc(-c5c[nH]c([C@@H](NC(=O)C6(OC(=O)N(C)C)CC6)C(C)(C)C)n5)cc4)cc3)c[nH]2)C(C)(C)C)CC1 [Compound L-29] | >100
CC(C)[C@H](NC(=O)C(C)(C)C)c1nc(-c2ccc(-c3ccc(-c4c[nH]c([C@@H](NC(=O)C(C)(C)C)C(C)C)n4)cn3)cc2)c[nH]1 [Compound N-103] | >100
CC(C)(C(=O)N[C@H](c1nc(-c2ccc(-c3ccc(-c4c[nH]c([C@@H](NC(=O)C(C)(C)C(=O)N5CC[C@@H](O)C5)C(C)(C)C)n4)cc3)cc2)c[nH]1)C(C)(C)C)C(=O)N1CC[C@@H](O)C1 [Compound W-151] | >10
C[C@@H]1C[C@@H](C(=O)N[C@H](c2nc(-c3ccc(-c4ccc(-c5c[nH]c([C@@H](NC(=O)[C@@H]6C[C@@H](C)CN6C(=O)OC(C)(C)C)C(C)(C)C)n5)cc4)cc3)c[nH]2)C(C)(C)C)N(C(=O)OC(C)(C)C)C1 [Compound W-120] | >100
CC(C)(C(=O)N[C@H](c1nc(-c2ccc(-c3ccc(-c4c[nH]c([C@@H](NC(=O)C(C)(C)C(=O)NC56CC(C5)C6)C(C)(C)C)n4)cc3)cc2)c[nH]1)C(C)(C)C)C(=O)NC12CC(C1)C2 [Compound W-155] | >100
CC(C)(C)[C@H](NC(=O)C1CCCCC1c1ccccc1)c1nc(-c2ccc(-c3ccc(-c4c[nH]c([C@@H](NC(=O)C5CCCCC5c5ccccc5)C(C)(C)C)n4)cc3)cc2)c[nH]1 (stereo partly drawn) [Compound S-269] | >100
CC(C)(C)[C@H](NC(=O)C1CC(=O)c2ccccc2C1)c1nc(-c2ccc(-c3ccc(-c4c[nH]c([C@@H](NC(=O)C5CC(=O)c6ccccc6C5)C(C)(C)C)n4)cc3)cc2)c[nH]1 (stereo partly drawn) [Compound S-256] | >100
CC(C)[C@H](NC(=O)[C@@]1(C)CC(F)(F)CCO1)c1nc(-c2ccc(-c3ccc(-c4c[nH]c([C@@H](NC(=O)[C@@]5(C)CC(F)(F)CCO5)C(C)C)n4)cc3)cc2)c[nH]1 [Compound Y-79] | >100
CC(C)[C@H](NC(=O)C(C)(C)C)c1nc(-c2ccc(-c3ccc(-c4c[nH]c([C@@H](NC(=O)C(C)(C)C)C(C)C)n4)cc3F)cc2)c[nH]1 [Compound N-100] | >100
CC(C)(C)OC(=O)N1C[C@H](F)C[C@H]1C(=O)N[C@H](c1nc(-c2ccc(-c3ccc(-c4c[nH]c([C@@H](NC(=O)[C@@H]5C[C@@H](F)CN5C(=O)OC(C)(C)C)C5(C)CC5)n4)cc3)cc2)c[nH]1)C1(C)CC1 [Compound W-182] | >100
CCC(=O)N1CCC[C@H]1c1ncc(-c2ccc(-c3ccc(-c4cnc([C@@H]5CCCN5C(=O)CC)[nH]4)cc3)cc2)[nH]1 [Compound S-108] | <10

SMILES | Fold-Synergistic 1a (Q30E) [fold]
CC(C)(C)[C@H](NCC1CCCCC1)c1nc(-c2ccc(-c3ccc(-c4c[nH]c([C@@H](NCC5CCCCC5)C(C)(C)C)n4)cc3)cc2)c[nH]1 [Compound L-2] | >100
CC(C)(C)[C@H](NC(=O)[C@@H]1CCCO1)c1nc(-c2ccc(-c3ccc(-c4c[nH]c([C@@H](NC(=O)[C@@H]5CCCO5)C(C)(C)C)n4)cc3)cc2)c[nH]1 [Compound L-65] | >100
CC(C)(C)[C@H](NC(=O)C1(F)CCCCC1)c1nc(-c2ccc(-c3ccc(-c4c[nH]c([C@@H](NC(=O)C5(F)CCCCC5)C(C)(C)C)n4)cc3)cc2)c[nH]1 [Compound S-286] | >100
CC(C)(C(=O)N[C@H](c1nc(-c2ccc(-c3ccc(-c4c[nH]c([C@@H](NC(=O)C(C)(C)C(=O)N5CCC(O)CC5)C(C)(C)C)n4)cc3)cc2)c[nH]1)C(C)(C)C)C(=O)N1CCC(O)CC1 [Compound W-136] | >10
CC(C)(C)OC(=O)N1CCOC[C@H]1C(=O)N[C@H](c1nc(-c2ccc(-c3ccc(-c4c[nH]c([C@@H](NC(=O)[C@@H]5COCCN5C(=O)OC(C)(C)C)C(C)(C)C)n4)cc3)cc2)c[nH]1)C(C)(C)C [Compound L-61] | >100
CC(C)(C)[C@H](NC(=O)C1(O)CCCC1)c1nc(-c2ccc(-c3ccc(-c4c[nH]c([C@@H](NC(=O)C5(O)CCCC5)C(C)(C)C)n4)cc3)cc2)c[nH]1 [Compound L-73] | >100
O=C(c1nccc2ccccc12)N1CCC[C@H]1c1ncc(-c2ccc(-c3ccc(-c4cnc([C@@H]5CCCN5C(=O)c5nccc6ccccc56)[nH]4)cc3)cc2)[nH]1 [Compound S-202] | >100
CC1([C@H](NC(=O)C(=O)N2CCC(C(F)(F)F)CC2)c2nc(-c3ccc(-c4ccc(-c5c[nH]c([C@@H](NC(=O)C(=O)N6CCC(C(F)(F)F)CC6)C6(C)CC6)n5)cc4)cc3)c[nH]2)CC1 [Compound W-59] | >100
CC(C)(C)[C@H](NC(=O)C12CCC(O)(CC1)CC2)c1nc(-c2ccc(-c3ccc(-c4c[nH]c([C@@H](NC(=O)C56CCC(O)(CC5)CC6)C(C)(C)C)n4)cc3)cc2)c[nH]1 [Compound W-128] | >100
CC(C)[C@H](NC(=O)[C@@H]1C[C@@H](F)CN1C(=O)OC(C)(C)C)c1nc(-c2ccc(-c3ccc(-c4c[nH]c([C@@H](NC(=O)[C@@H]5C[C@@H](F)CN5C(=O)OC(C)(C)C)C(C)C)n4)cc3)cc2)c[nH]1 [Compound W-181] | >100
O=C(c1cccc2ccccc12)N1CCC[C@H]1c1ncc(-c2ccc(-c3ccc(-c4cnc([C@@H]5CCCN5C(=O)c5cccc6ccccc56)[nH]4)cc3)cc2)[nH]1 [Compound S-119] | >10
CC(C)(C)OC(=O)N1C[C@@H](F)C[C@H]1C(=O)N[C@H](c1nc(-c2ccc(-c3ccc(-c4c[nH]c([C@@H](NC(=O)[C@@H]5C[C@H](F)CN5C(=O)OC(C)(C)C)C(C)(C)C)n4)cc3)cc2)c[nH]1)C(C)(C)C [Compound W-83] | >100
CC(C)(C)[C@H](NC(=O)C(F)(F)C1CCCCO1)c1nc(-c2ccc(-c3ccc(-c4c[nH]c([C@@H](NC(=O)C(F)(F)C5CCCCO5)C(C)(C)C)n4)cc3)cc2)c[nH]1 (stereo partly drawn) [Compound P-166] | >100
CC(C)CC(=O)N[C@@H](CC(C)(C)C)c1nc(-c2ccc(-c3ccc(-c4c[nH]c([C@H](CC(C)(C)C)NC(=O)CC(C)C)n4)cc3)cc2)c[nH]1 [Compound P-4] | >10
CC(C)(C(=O)NCC(F)(F)F)C(=O)N[C@H](c1nc(-c2ccc(-c3ccc(-c4c[nH]c([C@@H](NC(=O)C(C)(C)C(=O)NCC(F)(F)F)C(C)(C)C)n4)cc3)cc2)c[nH]1)C(C)(C)C [Compound W-139] | >100
CC(C)(C)OC(=O)N1CCCC[C@@H]1C(=O)N[C@H](c1nc(-c2ccc(-c3ccc(-c4c[nH]c([C@@H](NC(=O)[C@H]5CCCCN5C(=O)OC(C)(C)C)C(C)(C)C)n4)cc3)cc2)c[nH]1)C(C)(C)C [Compound L-16] | >100
CC(C)(C)[C@H](NC(=O)C(F)(F)C1(O)CCCC1)c1nc(-c2ccc(-c3ccc(-c4c[nH]c([C@@H](NC(=O)C(F)(F)C5(O)CCCC5)C(C)(C)C)n4)cc3)cc2)c[nH]1 [Compound P-164] | >100
CC(C)(C)OC(=O)N1CCCC[C@H]1C(=O)N[C@H](c1nc(-c2ccc(-c3ccc(-c4c[nH]c([C@@H](NC(=O)[C@@H]5CCCCN5C(=O)OC(C)(C)C)C(C)(C)C)n4)cc3)cc2)c[nH]1)C(C)(C)C [Compound L-17] | >100
CC(C)(C)[C@H](NC(=O)C(=O)N1CCC(F)(F)C1)c1nc(-c2ccc(-c3ccc(-c4c[nH]c([C@@H](NC(=O)C(=O)N5CCC(F)(F)C5)C(C)(C)C)n4)cc3)cc2)c[nH]1 [Compound W-22] | >100
